Laboratory results taken from patent US7993922B2, “Three-dimensional tissue equivalent using macromass culture” (Reliance Life Sciences Pvt. Ltd., priority 2002, dated 2011).

Key:
[1] = tested on: dividing monolayers of fibroblasts; experiment: Camptothecin toxicity on dividing monolayers, MTT; type: cell-based, human; conditions: actively dividing monolayer cells
Description: (§1) As mentioned previously, the tissue equivalent of the present invention could be used as an in vitro model of normal non-dividing cells for safety testing of anti-cancer compounds. To test its usefulness as such a model, dividing monolayers of fibroblasts and the tissue-equivalent of the present invention were incubated with or without (control) camptothecin, an anti-cancer drug known to act on dividing cells and not on non-dividing cells. Both were incubated for the same period of time. Then the metabolic activity was assessed by incubating both groups in MTT, which was quantified by spectrophotometry. […] Leroy et al. Ann. N.Y. Acad. Sci. (2000) 922:1-10. Thus, these are normal cells in a non-dividing state, which could be a model of the normal quiescent cells of the human body, in contrast to the abnormal tumour cells which are rapidly dividing.

[2] = tested on: tissue-equivalent of the present invention (non-dividing fibroblasts); experiment: Camptothecin toxicity on the non-dividing model (tissue equivalent), MTT; type: cell-based, human; conditions: non-dividing cells
Description: as §1

[3] = tested on: neuropathic diabetic foot ulcers; conditions: topical; cited from earlier work

In the case of CC[C@@]1(O)C(=O)OCc2c1cc1n(c2=O)Cc2cc3ccccc3nc2-1 [camptothecin], the “Toxicity (metabolic activity, MTT)” value [1] is reported as “toxic” and the “Toxicity (metabolic activity, MTT)” value [2] is reported as “no toxicity”.
For “Regranex® Becaplermin: FDA-approved topical platelet-derived growth factor (PDGF) for chronic diabetic neuropathic ulcers”, the “Acceleration in the healing of ulcers” value [3] is listed as 15%.
